Read-outs that look alike come from different tables or passages of the source.
Biological target: T1, XccFPR (Xanthomonas citri pv. citri, UniProt A0AAI7ZED9)
T1 sequence (A0AAI7ZED9 1-259): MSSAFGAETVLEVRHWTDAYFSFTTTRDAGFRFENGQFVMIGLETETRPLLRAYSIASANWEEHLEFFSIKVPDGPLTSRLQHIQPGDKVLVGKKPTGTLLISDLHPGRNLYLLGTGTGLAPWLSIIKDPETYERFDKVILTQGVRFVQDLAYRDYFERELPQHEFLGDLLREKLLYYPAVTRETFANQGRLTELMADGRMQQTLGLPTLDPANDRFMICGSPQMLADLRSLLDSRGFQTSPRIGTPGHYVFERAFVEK
Assay: NADPH-dependent DCPIP diaphorase activity of XccFPR, dose-response of inhibitors
Format: biochemical, Xanthomonas citri subsp. citri
Description: When assayed in regular cuvettes, the DCPIP diaphorase activity of XccFPR was determined at 25 °C using a Cary 100 (Agilent Technologies Inc., Santa Clara, CA, USA) spectrophotometer as previously established. […] Positive controls (without any hit compound) were included in every reaction set. […] The DMSO concentration was kept at 2% in all samples. All kinetic experiments were performed in triplicate. The effect of the inhibitors on Km and kcat was determined by fitting the datasets to the Michaelis-Menten model. Additionally, data were globally fit to either Lineweaver-Burk equations for uncompetitive or non-competitive inhibition, yielding Ki for each compound (Equations (1) and (2), respectively).

[1] = 25 °C, 50 mM Tris/HCl, 2% DMSO, pH 8.0, 20 nM XccFPR, 95 µM DCPIP, 50 μM NADPH
[2] = 25 °C, 50 mM Tris/HCl, 2% DMSO, pH 8.0, 20 nM XccFPR, 95 µM DCPIP, 50 μM NADPH, compound 0–800 μM
[3] = 25 °C, 2% DMSO, pH 8.0, 20 nM XccFPR, 95 µM DCPIP, 50 μM NADPH

**Q.** Which results are given for `O=c1c2ccccc2[se]n1-c1ccccc1` [C2, 2-Phenyl-1,2-benzoselenazol-3-one(ebselen), reference compound]?
**A.** ICmax (concentration causing maximal inhibition) [1]: 300 ± 1 µM; IC50 [2]: 27 ± 1 µM; % Inhibition at ICmax [3]: over 90%; % Inhibition at ICmax (25 °C, 2% DMSO, pH 8.0, 20 nM XccFPR, 95 µM DCPIP, 50 μM NADPH, listed as 2): 95 ± 3%

**Q.** With `O=[N+]([O-])c1ccc(Oc2c(Cl)cccc2Cl)cc1` [C4, 1,3-dichloro-2-(4-nitrophenoxy)benzene] as the compound, how does the IC50 read?
**A.** The IC50 was 36 ± 1 µM.

**Q.** What about the “% Inhibition at ICmax” value [3] of the same compound?
**A.** Its value is 86 ± 1%.

**Q.** For `O=C(CSc1nc2cc(Cl)ccc2o1)Nc1cc(C(F)(F)F)cc(C(F)(F)F)c1` [C5, N-[3,5-bis(trifluoromethyl)phenyl]-2-[(5-chloro-1,3-benzoxazol-2-yl)sulfanyl]acetamide], which IC50 is on record?
**A.** Its IC50 is 46 ± 1 µM.

**Q.** Which results are given for `CC(C)N(C(=O)c1ccc(-c2ccccc2F)cc1)C(C)C` [C6, 4-(2-fluorophenyl)-N,N-bis(propan-2-yl)benzamide]?
**A.** IC50: > 605 µM; % Inhibition at ICmax [3]: ~70%

**Q.** How did the IC50 turn out when `C#CC1(NC(=O)NCCCCCCNC(=O)NC2(C#C)CCCCC2)CCCCC1` [C7, 3-(1-ethynylcyclohexyl)-1-(6-{[(1-ethynylcyclohexyl)carbamoyl]amino}hexyl) urea] was run?
**A.** Its IC50 is 85 ± 16 µM.

**Q.** And the “% Inhibition at ICmax” value [3]?
**A.** The value was 97 ± 7%.

**Q.** Which results are given for `Clc1ccc2sc(SCc3ccccc3)nc2c1` [C8, 2-(benzylsulfanyl)-5-chloro-1,3-benzothiazole]?
**A.** IC50: 79 ± 1 µM; % Inhibition at ICmax [3]: 88 ± 9%

**Q.** How did the IC50 turn out when `Cc1oc(C(=O)NNC(=O)Nc2cccc(C(F)(F)F)c2)nc1-c1ccccc1` [C9, 5-methyl-4-phenyl-N-({[3-(trifluoromethyl)phenyl]carbamoyl}amino)-1,3-oxazole-2-carboxamide] was run?
**A.** Its IC50 is 147 ± 1 µM.

**Q.** And the “% Inhibition at ICmax” value [3]?
**A.** Its value is 60 ± 4%.

**Q.** What does the source list for `Nc1c(Cl)cc(C(=O)Nc2cc(Cl)c(Cl)cc2Cl)cc1Cl` [C10, 4-amino-3,5-dichloro-N-(2,4,5-trichlorophenyl)benzamide]?
**A.** IC50: 98 ± 1 µM; % Inhibition at ICmax [3]: 57 ± 7%

**Q.** `COc1cc(C2SCCS2)cc([N+](=O)[O-])c1OS(=O)(=O)c1cc(Cl)ccc1Cl` [C11, 4-(1,3-dithiolan-2-yl)-2-methoxy-6-nitrophenyl 2,5-dichlorobenzene-1-sulfonate] was tested. Which IC50 did it give?
**A.** The IC50 was 78 ± 1 µM.

**Q.** What about the “% Inhibition at ICmax” value [3] of the same compound?
**A.** The value was 92 ± 5%.

**Q.** `N#CC(NCc1ccccc1)c1ccc(Cl)c(Cl)c1` (stereo not shown) [C13, 2-(benzylamino)-2-(3,4-dichlorophenyl)acetonitrile] was tested. Which IC50 did it give?
**A.** The IC50 was 95 ± 1 µM.

**Q.** What about the “% Inhibition at ICmax” value [3] of the same compound?
**A.** Its value is 80 ± 3%.

**Q.** `CCOC(=O)c1c(C)c(C#N)c(NC(=O)c2ccccc2)n1-c1ccccc1` [C14, ethyl 5-benzamido-4-cyano-3-methyl-1-phenyl-1H-pyrrole-2-carboxylate] was tested. Which IC50 did it give?
**A.** Its IC50 is 127 ± 1 µM.

**Q.** What about the “% Inhibition at ICmax” value [3] of the same compound?
**A.** Its value is 85 ± 4%.

**Q.** For `O=C(CCn1c(=O)oc2ccccc21)Sc1ccc(Cl)cc1Cl` [C15, 3-{3-[(2,4-dichlorophenyl)sulfanyl]-3-oxopropyl}-2,3-dihydro-1,3-benzoxazol-2-one], which IC50 is on record?
**A.** The IC50 was 30 ± 1 µM.

**Q.** How did the IC50 turn out when `COc1ccc(C(C)=O)cc1CO/N=C1\CSCc2ccccc21` [C16, 1-{3-[({[(4Z)-3,4-dihydro-1H-2-benzothiopyran-4-ylidene]amino}oxy)methyl]-4-methoxyphenyl}ethan-1-one] was run?
**A.** Its IC50 is 58 ± 1 µM.

**Q.** What about the “% Inhibition at ICmax” value [3] of the same compound?
**A.** Its value is 79 ± 6%.

**Q.** For `Cn1cc(Br)c(/C=N/Nc2ccc(Cl)cc2Cl)n1` [C17, 4-bromo-3-[(1E)-[2-(2,4-dichlorophenyl)hydrazin-1-ylidene]methyl]-1-methyl-1H-pyrazole], which IC50 is on record?
**A.** Its IC50 is 27 ± 2 µM.

**Q.** With `Nc1ccccc1Sc1cc(C(F)(F)F)cc([N+](=O)[O-])c1Sc1ccccc1N` [C18, 2-({2-[(2-aminophenyl)sulfanyl]-6-nitro-4-(trifluoromethyl)phenyl}sulfanyl)aniline] as the compound, how does the IC50 read?
**A.** Its IC50 is 24 ± 1 µM.

**Q.** With `Cc1nc(-c2cc(C#N)c(SCCNS(=O)(=O)c3cccc(C(F)(F)F)c3)nc2C)cs1` [C19, N-(2-{[3-cyano-6-methyl-5-(2-methyl-1,3-thiazol-4-yl)pyridin-2-yl]sulfanyl}ethyl)-3-(trifluoromethyl)benzene-1-sulfonamide] as the compound, how does the IC50 read?
**A.** The IC50 was 17 ± 1 µM.

**Q.** What does the source list for `Cc1cc(C)c2cc(C(=O)Nc3ccc4c(c3)OCO4)[nH]c2c1` [C20, N-(2H-1,3-benzodioxol-5-yl)-4,6-dimethyl-1H-indole-2-carboxamide]?
**A.** IC50: 53 ± 2 µM; % Inhibition at ICmax [3]: 100 ± 1%

**Q.** Which results are given for `CCOC(=O)C1=C(C)NC(C)=C(C(=O)OCC)C1c1ccc(-c2cc(C(F)(F)F)ccc2Cl)o1` [C21, 3,5-diethyl 4-{5-[2-chloro-5-(trifluoromethyl)phenyl]furan-2-yl}-2,6-dimethyl-1,4-dihydropyridine-3,5-dicarboxylate]?
**A.** IC50: 14 ± 1 µM; % Inhibition at ICmax [3]: 62 ± 7%

**Q.** Which results are given for `O=C1/C(=C/c2cccs2)CCC/C1=C\c1cccs1` [C22, (2E,6E)-2,6-bis[(thiophen-2-yl)methylidene]cyclohexan-1-one]?
**A.** IC50: 58 ± 2 µM; % Inhibition at ICmax [3]: 100 ± 4%

**Q.** `N#CC(C#N)=C1SC=C(c2ccc(Cl)cc2)S1` [C23, 2-[4-(4-chlorophenyl)-2H-1,3-dithiol-2-ylidene]propanedinitrile] was tested. Which IC50 did it give?
**A.** The IC50 was greater than 604 µM.

**Q.** And the “% Inhibition at ICmax” value [3]?
**A.** Its value is 73 ± 3%.

**Q.** Which results are given for `Cc1ccc(C)c(CSc2nc(C3CCCCC3)c(C#N)c(=O)[nH]2)c1` [C24, 4-cyclohexyl-2-{[(2,5-dimethylphenyl)methyl]sulfanyl}-6-oxo-1,6-dihydropyrimidine-5-carbonitrile]?
**A.** IC50: 35 ± 1 µM; % Inhibition at ICmax [3]: 43 ± 4%

**Q.** How did the IC50 turn out when `O=C(O/N=C/Nc1ncc(-c2ccc(Br)s2)s1)c1ccc([N+](=O)[O-])cc1` [C25, (E)-({[5-(5-bromothiophen-2-yl)-1,3-thiazol-2-yl]amino}methylidene)amino 4-nitrobenzoate] was run?
**A.** Its IC50 is 91 ± 1 µM.

**Q.** And the “% Inhibition at ICmax” value [3]?
**A.** The value was roughly 91%.

**Q.** How did the IC50 turn out when `COC(=O)c1sccc1NC(=O)Cc1cccs1` [C26, methyl 3-[2-(thiophen-2-yl)acetamido]thiophene-2-carboxylate] was run?
**A.** The IC50 was 33 ± 2 µM.

**Q.** `CC(C)S(=O)(=O)c1c(SCC#N)sc(C#N)c1N` [C27, 3-amino-5-[(cyanomethyl)sulfanyl]-4-(propane-2-sulfonyl)thiophene-2-carbonitrile] was tested. Which IC50 did it give?
**A.** The IC50 was 89 ± 1 µM.

**Q.** What about the “% Inhibition at ICmax” value [3] of the same compound?
**A.** Its value is 92 ± 3%.

**Q.** Which results are given for `CCCCc1ccc(NC(=O)CSc2nc(C3CCCCC3)c(C#N)c(=O)[nH]2)c(C)c1` [C28, N-(4-butyl-2-methylphenyl)-2-[(5-cyano-4-cyclohexyl-6-oxo-1,6-dihydropyrimidin-2-yl)sulfanyl]acetamide]?
**A.** IC50: > 652 µM; % Inhibition at ICmax [3]: 81 ± 2%

**Q.** For `O=C(Nc1ccccc1-c1nc(-c2ccc(Cl)cc2)no1)C(F)(F)F` [C29, N-{2-[3-(4-chlorophenyl)-1,2,4-oxadiazol-5-yl]phenyl}-2,2,2-trifluoroacetamide], which IC50 is on record?
**A.** The IC50 was 11 ± 2 µM.

**Q.** And the “% Inhibition at ICmax” value [3]?
**A.** Its value is 27 ± 2%.

**Q.** For `O=C(O)c1c2c(nc3ccccc13)CSc1ccc(Cl)cc1-2` [C30, 2-chloro-6H-5-thia-7-azatetraphene-12-carboxylic acid], which IC50 is on record?
**A.** The IC50 was 29 ± 1 µM.

**Q.** `Brc1csc(C2SCCS2)c1` [C31, 2-(4-bromothiophen-2-yl)-1,3-dithiolane] was tested. Which IC50 did it give?
**A.** The IC50 was 90 ± 1 µM.

**Q.** And the “% Inhibition at ICmax” value [3]?
**A.** The value was 85 ± 1%.

**Q.** How did the IC50 turn out when `Cc1ccc2oc(=O)n(CCC(=O)NNC(=O)c3nc(-c4cccs4)no3)c2c1` [C32, 3-(5-methyl-2-oxo-2,3-dihydro-1,3-benzoxazol-3-yl)-N'-[3-(thiophen-2-yl)-1,2,4-oxadiazole-5-carbonyl]propanehydrazide] was run?
**A.** Its IC50 is greater than 2720 µM.

**Q.** What about the “% Inhibition at ICmax” value [3] of the same compound?
**A.** The value was roughly 56%.

**Q.** Which IC50 does the source give for `CCOC(=O)CNC(=O)CCc1cc(OC)c(OC)c(OC)c1` [C33, ethyl 2-[3-(3,4,5-trimethoxyphenyl)propanamido]acetate] here?
**A.** The IC50 was greater than 1920 µM.

**Q.** What about the “% Inhibition at ICmax” value [3] of the same compound?
**A.** Its value is roughly 53%.

**Q.** Which results are given for `N#CC1=C(N)OC2=C(COc3ccc(F)cc32)C1c1ccc(Cl)cc1` (stereo not shown) [C34, 2-amino-4-(4-chlorophenyl)-9-fluoro-4H,5H-pyrano[3,2-c]chromene-3-carbonitrile]?
**A.** IC50: 210 ± 1 µM; % Inhibition at ICmax [3]: ~87%

**Q.** What does the source list for `O=C(COC(=O)c1cccc(I)c1)c1ccccc1` [C35, 2-oxo-2-phenylethyl 3-iodobenzoate]?
**A.** IC50: 63 ± 1 µM; % Inhibition at ICmax [3]: 100 ± 1%

**Q.** `O=C(Nc1cccc(Cl)c1)Nc1ccccc1NS(=O)(=O)c1cccs1` [D1, 3-(3-chlorophenyl)-1-[2-(thiophene-2-sulfonamido)phenyl]urea] was tested. Which IC50 did it give?
**A.** Its IC50 is 76 ± 1 µM.

**Q.** What about the “% Inhibition at ICmax” value [3] of the same compound?
**A.** The value was 98 ± 1%.

**Q.** How did the IC50 turn out when `O=C(Nc1cccc(Cl)c1)Nc1ccc(F)c(Cl)c1` [D3, 1-(3-Chloro-4-fluoro-phenyl)-3-(3-chloro-phenyl)-urea] was run?
**A.** Its IC50 is greater than 5000 µM.

**Q.** Which results are given for `CSc1sc(NC(=O)N2CCOCC2)c(-c2ccc(Cl)cc2)c1C#N` [D4, N-[3-(4-chlorophenyl)-4-cyano-5-(methylsulfanyl)thiophen-2-yl]morpholine-4-carboxamide]?
**A.** IC50: 113 ± 1 µM; % Inhibition at ICmax [3]: 78 ± 2%

**Q.** With `CSc1sc(C(=O)O)c(-c2cccc(Cl)c2)c1C#N` [D6, 3-(3-chlorophenyl)-4-cyano-5-(methylsulfanyl)thiophene-2-carboxylic acid] as the compound, how does the IC50 read?
**A.** Its IC50 is greater than 1500 µM.

**Q.** With `Cc1cccc(C)c1NC(=O)Nc1cccs1` [D7, 1-(2,6-dimethylphenyl)-3-thiophen-2-ylurea] as the compound, how does the IC50 read?
**A.** The IC50 was 151 ± 1 µM.

**Q.** And the “% Inhibition at ICmax” value [3]?
**A.** The value was 84 ± 1%.

**Q.** For “benzalkonium chloride [C3, reference compound]”, which “ICmax (concentration causing maximal inhibition)” value [1] is on record?
**A.** The value was 300 ± 3 µM.

**Q.** And the IC50 [2]?
**A.** Its IC50 is 190 ± 1 µM.

**Q.** And the “% Inhibition at ICmax” value [3]?
**A.** The value was 31 ± 8%.
